Measurements from patent US20140011853A1, “SUBSTITUTED 3-(BIPHENYL-3-YL)-8,8-DIFLUORO-4-HYDROXY-1-AZASPIRO[4.5]DEC-3-EN-2-ONES FOR THERAPY” (BAYER INTELLECTUAL PROPERTY GMBH, priority 2011, published 2014).
Like-named read-outs stand apart in the source and are kept apart here.

Key:
Myzus persicae = experiment: Myzus test (MYZUPE spray treatment); type: in vivo; details: Myzus persicae, 144 h, read-out: effect (kill of aphids)
From the text: Disks of Chinese cabbage (Brassica pekinensis) infested by all stages of the green peach aphid (Myzus persicae) are sprayed with an active compound formulation of the desired concentration.

[1] = target: human serum albumin (HSA) (Homo sapiens, UniProt P02768); experiment: Protein binding to human serum albumin (HSA-Transil)
PC3 = experiment: Tumour cell proliferation, CellTiter-Glo, 96-hour incubation, PC3; type: cell-based; details: Homo sapiens, PC-3, 96 h, read-out: PC3 IC50
Experimental: (§1) In accordance with the invention, the substances were tested in cell-based assays for the ability of the substances of inhibiting tumour cell proliferation after a 96-hour incubation with the substance. Cell viability was tested using the CellTiter-Glo® luminescent cell viability assay (Promega). The cells were sown at a density of 2000-5000 cells/well (depending on the cell line) in 100 μl growth medium on 96-well microtiter plates. For each cell line examined, cells were sown on a separate plate to determine the luminescence at t=0 hours and t=96 hours. After overnight incubation at 37° C., the luminescence values for the t=0 samples were determined. The dose plates for the t=96 hours points in time were treated with substances diluted with growth medium. The cells were then incubated at 37° C. for 96 hours, and the luminescence values for the t=96 hours samples were then determined. For data analysis, the t=0 values were subtracted from the t=96 hours values for treated and untreated samples. The differences in luminescence in percent between substance-treated samples and control values were used to determine the growth inhibition in percent.
(§2) The substances were tested in the following cell lines which represent the stated indications in an exemplary manner: […]

[2] = Plasma protein binding by equilibrium dialysis, human; type: in vitro ADME; details: read-out: fu (human)
Experimental: The binding of test substances to plasma proteins is determined by equilibrium dialysis by means of the Ht-dialysis apparatus (96-well) made of Teflon and a semipermeable membrane (regenerated cellulose, MWCO 12-14K). This separates 150 μl each of a plasma side and a buffer side (50 mM phosphate buffer). The test substance is added in 2 concentrations (usually 3 and 0.3 μM) to the plasma side and binds to plasma proteins. The unbound fraction of the test substance passes through the membrane and is distributed on either side until equilibrium is established (after approx. 6-8 h at 37° C.). The substance concentration on the buffer side and the plasma side is determined by LC-MS analysis. For this, both sides are brought by dilution with buffer or plasma to the same matrix (10% plasma) and then precipitated with methanol. The free (unbound) fraction (fu) is calculated from the quotient of the buffer and plasma concentration. Stability tests and recovery tests are run concurrently as controls. In addition, the substance in buffer is dialysed against buffer, to check the nonspecific binding to apparatus and membrane and establishment of equilibrium. Because during incubation the osmotic pressure of the plasma proteins leads to dilution of the plasma (volume shift), this possible error is determined by weighing blank plasma samples and is included in the calculation of fu. Establishment of equilibrium and plasma stability should have a value not lower than 80% and the recovery should be at least 30%. A free fraction of <1% is regarded as high, between 1 and 10% as moderate and >10% as low plasma protein binding.

H460 = experiment: Tumour cell proliferation, CellTiter-Glo, 96-hour incubation, H460; type: cell-based; details: Homo sapiens, NCI-H460, 96 h, read-out: H460 IC50
Experimental: as §1, §2

[3] = Pharmacokinetic parameters in the rat (i.v. and intragastric); type: in vivo; details: for clearance / Vd / half-life: male, iv; for clearance: read-out: CLplasma (converted); for Vd: read-out: Vss; for half-life: read-out: t½ (converted)
Experimental: For this, the test substances were applied in dissolved form both for intravenous, and for intragastric application, wherein compatible solubilizers such as PEG400 and/or ethanol were used in a compatible amount.
(§3) The test substances were applied at a dose of 0.1-1 mg/kg. Administration was as a bolus injection in the male rat and as an infusion in the female dog (15 min). At various time points after the bolus injection, and before and after the 15-minute infusion, blood samples of about 100-150 μl were removed via a catheter either from the jugular vein (rat) or from the saphenous vein (dog). Lithium-heparin was added as anticoagulant to the blood samples and they were stored in a refrigerator until required for further processing. After centrifugation of the samples for 15 min at 3000 rpm, an aliquot of 100 μl was taken from the supernatant (plasma) and was precipitated by adding 400 μl of cold ACN or methanol (absolute). The precipitated samples were frozen-out at 20° C. overnight, then centrifuged again at 3000 rpm for 15 min, before 150 μl of the clear supernatant were removed to determine the concentration. The analysis was effected by means of an Agilent 1200 HPLC system with connected LCMS/MS detection.
Calculation of the PK parameters (using PK calculation software, e.g. WinNonLin®): CLplasma: total plasma clearance of the test substance (in l*kg/h); CLblood: total blood clearance of the test substance (in l*kg/h),
where (CLblood=CLplasma*Cp/Cb); Vss: apparent steady-state distribution volume (in 1/kg); t1/2: half-life within a specified interval (here: terminal t1/2, in h); AUCnorm: area under the plasma concentration time profile from time point zero extrapolated to infinity divided by the dose normalized for body weight (in kg*l/h); AUC(0-tn)norm: integrated area under the plasma concentration time profile from time point zero until the last time point at which a plasma concentration was measurable, divided by the dose normalized for body weight (in kg*l/h); Cmax: maximum concentration of the test substance in the plasma (in μg/l); Cmax,norm: maximum concentration of the test substance in the plasma divided by the dose normalized for body weight (in kg/1); Cb/Cp: ratio of the blood to plasma concentration distribution.
as §3, with “administered to fasting male rats or female dogs” for “applied”, “0.3-1 mg/kg intragastrically” for “0.1-1 mg/kg. Administration was”, “using a feeding tube.” for “injection in the male rat and as an infusion in the female dog (15 min).”, “administration,” for “the bolus injection, and before and after the 15-minute infusion,”, “−20°” for “20°”, “centrifuged” for “centrifuged again”
Calculation of the PK Parameters (Using PK Calculation Software, e.g. WinNonLin®): […]

KM12 = experiment: Tumour cell proliferation, CellTiter-Glo, 96-hour incubation, KM12; type: cell-based; details: Homo sapiens, KM12, 96 h, read-out: KM12 IC50
Experimental: as §1, §2

[4] = Prediction of human pharmacokinetic parameters and human therapeutic dosage
Experimental: The human pharmacokinetic (PK) parameters (Table 9) were predicted based on the in vivo PK parameters obtained for rats (single species scaling), taking into account the interspecies differences in the free fraction (fu) in the plasma. The effective AUC (area under curve) was determined based on the measured plasma concentration time profile for in vivo efficacy in the PC3 tumour model of the mouse (nu/nu mouse).

human serum albumin (HSA), sequence (P02768 25-609): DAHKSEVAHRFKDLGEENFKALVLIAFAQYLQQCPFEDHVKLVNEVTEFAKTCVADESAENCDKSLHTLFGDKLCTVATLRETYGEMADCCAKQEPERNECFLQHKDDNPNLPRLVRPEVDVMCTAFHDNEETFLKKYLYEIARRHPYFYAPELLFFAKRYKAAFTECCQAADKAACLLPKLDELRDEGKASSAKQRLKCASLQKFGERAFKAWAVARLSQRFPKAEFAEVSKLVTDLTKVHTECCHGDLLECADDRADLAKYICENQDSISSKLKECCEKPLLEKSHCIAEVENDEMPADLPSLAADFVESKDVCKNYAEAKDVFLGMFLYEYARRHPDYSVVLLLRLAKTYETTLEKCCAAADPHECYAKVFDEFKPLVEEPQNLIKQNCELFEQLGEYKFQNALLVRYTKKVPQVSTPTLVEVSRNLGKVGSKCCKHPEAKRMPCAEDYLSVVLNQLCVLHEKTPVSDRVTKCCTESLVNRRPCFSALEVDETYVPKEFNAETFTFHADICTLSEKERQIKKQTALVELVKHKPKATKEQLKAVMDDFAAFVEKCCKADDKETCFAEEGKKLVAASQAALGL

| Structure (SMILES) | pest or weed control at 500 g/ha (Myzus persicae) | Kd [1] | IC50 (PC3) | fraction unbound [2] | IC50 (H460) | CLblood [3] | F [3] | clearance ([3]; in vivo) | Vd ([3]; in vivo) | half-life ([3]; in vivo) | IC50 (KM12) | calc. AUC (human) ([4]; from mouse dosage 40 mg/kg 2 × per day) | calc. AUC (human) ([4]; from mouse dosage 80 mg/kg 2 × per day) | pred. CL (human) ([4]; predicted (fu-corrected), single species scaling from rat) | clearance ([3]; plasma) | Vd ([3]; plasma) | half-life ([3]; plasma) |
| --- | --- | --- | --- | --- | --- | --- | --- | --- | --- | --- | --- | --- | --- | --- | --- | --- | --- |
| Cc1ccc(-c2ccc(Cl)cc2)cc1C1=C(O)C2(CCC(F)(F)CC2)NC1=O [Example 1-2, 3-(4′-Chloro-4-methylbiphenyl-3-yl)-8,8-difluoro-4-hydroxy-1-azaspiro[4.5]dec-3-en-2-one] | 100% | 3860 nM | 50 nM | 0.0042 | 134 nM | 0.2 mL/min/kg | 123% | 0.1 mL/min/kg | 0.36 L/kg | 52 h | 58 nM |  |  |  |  |  |  |
| Cc1ccc(-c2ccc(Cl)c(F)c2)cc1C1=C(O)C2(CCC(F)(F)CC2)NC1=O [Example 1-1, 3-(4′-Chloro-3′-fluoro-4-methylbiphenyl-3-yl)-8,8-difluoro-4-hydroxy-1-azaspiro[4.5]dec-3-en-2-one] | 90% | 3040 nM | 39 nM | 0.0035 | 131 nM | 0.367 mL/min/kg | 95% |  |  |  | 28 nM | 1882 µg·h/mL | 3041 µg·h/mL | 0.05 mL/min/kg | 0.167 mL/min/kg | 0.55 L/kg | 40 h |
